Measured values taken from ChEMBL document CHEMBL4814065, “Taurultams incorporating arylsulfonamide: First in vitro inhibition studies of α-, β- and γ-class Carbonic Anhydrases from Vibrio cholerae and Burkholderia pseudomallei” (Eur J Med Chem, 2021).

What was measured:
[1] = Inhibition of Vibrio cholerae alpha carbonic anhydrase preincubated with enzyme for 15 mins by phenol red-based stopped-flow CO2 hydration assay
[2] = Inhibition of Vibrio cholerae beta carbonic anhydrase preincubated with enzyme for 15 mins by phenol red-based stopped-flow CO2 hydration assay
[3] = Inhibition of Vibrio cholerae gamma carbonic anhydrase preincubated with enzyme for 15 mins by phenol red-based stopped-flow CO2 hydration assay
[4] = Inhibition of Burkholderia pseudomallei beta carbonic anhydrase preincubated with enzyme for 15 mins by phenol red-based stopped-flow CO2 hydration assay
[5] = Inhibition of Burkholderia pseudomallei gamma carbonic anhydrase preincubated with enzyme for 15 mins by phenol red-based stopped-flow CO2 hydration assay
[6] = Selectivity index, ratio of Ki for Vibrio cholerae alpha carbonic anhydrase to Ki for human carbonic anhydrase 2
[7] = Selectivity index, ratio of Ki for Vibrio cholerae beta carbonic anhydrase to Ki for human carbonic anhydrase 2
[8] = Selectivity index, ratio of Ki for Vibrio cholerae gamma carbonic anhydrase to Ki for human carbonic anhydrase 2
[9] = Selectivity index, ratio of Ki for Burkholderia pseudomallei beta carbonic anhydrase to Ki for human carbonic anhydrase 2
[10] = Selectivity index, ratio of Ki for Burkholderia pseudomallei gamma carbonic anhydrase to Ki for human carbonic anhydrase 2

Structure (SMILES) | Ki [1] | Ki [2] | Ki [3] | Ki [4] | Ki [5] | Ratio Ki [6] | Ratio Ki [7] | Ratio Ki [8] | Ratio Ki [9] | Ratio Ki [10]
NS(=O)(=O)c1ccc(N2CN(Cc3c(F)c(F)c(F)c(F)c3F)CCS2(=O)=O)cc1 | 8.5 nM | 4440 nM | 8110 nM | 81.8 nM | 824 nM | – | – | – | – | –
NS(=O)(=O)c1ccc(N2CCCCS2(=O)=O)cc1 | – | – | – | – | > 50000 nM | – | – | – | – | –
NS(=O)(=O)c1ccc(N2CN(Cc3cccc(Cl)c3)CCS2(=O)=O)cc1 | 37.7 nM | 3970 nM | 6770 nM | 416 nM | 68.7 nM | – | – | – | – | –
NS(=O)(=O)c1ccc(CCN2CN(Cc3c(F)cccc3F)CCS2(=O)=O)cc1 | 8 nM | 952 nM | 8820 nM | 393 nM | 19.5 nM | 0.14 | 16.9 | 156 | 7 | 0.3
